Assay results reported in article PMC7818921, “Synthesis and biological evaluation of heterocyclic 1,2,4-triazole scaffolds as promising pharmacological agents” (BMC Chemistry, 2021).
In brackets after ≈: the same amount, converted by molar mass. Read-outs that look alike come from different tables or passages of the source.

Experiments:
[1] = test system: Gram-positive (B. subtilis), Gram-negative (P. aeruginosa and E. coli) bacterial strains; experiment: Tube dilution method, MIC of antibacterial standards quoted without strain; assay type: cell-based; details: antibacterial standard, strain not given
Escherichia coli = experiment: In vitro antimicrobial screening, tube dilution method; assay type: cell-based; details: E. coli, Gram −ve, nutrient broth, 37 ± 1 °C, 24 h, read-out: Minimum inhibitory concentration
Experimental: (§1) The in vitro antimicrobial screening of the synthesized 1,2,4-triazole derivatives (T1–T20) in μM was determined against Gram-positive Bacillus subtilis, […], Gram-negative Escherichia coli bacterium and fungal strains Candida albicans and Aspergillus niger by tube dilution method using ciprofloxacin, amoxycillin (antibacterial) and fluconazole (antifungal) as reference drugs. DMSO was used to dissolve the reference and sample derivatives (T1–T20). Dilutions were prepared in nutrient broth (I.P.) for bacterial (incubated at 37 ± 1 °C for 24 h) and Sabouraud dextrose broth (I.P.) for fungal species (37 ± 1 °C for 48 h for C. albicans) and (25 ± 1 °C for 7 days for A. niger) (Table 3, Figs. 4 and 5).

Bacillus subtilis = experiment: as above; assay type: cell-based; details: B. substilis, Gram +ve, nutrient broth, 37 ± 1 °C, 24 h, read-out: Minimum inhibitory concentration
Experimental: as §1

Pseudomonas aeruginosa = experiment: as above; assay type: cell-based; details: P. aeruginosa, Gram −ve, nutrient broth, 37 ± 1 °C, 24 h, read-out: Minimum inhibitory concentration
Experimental: as §1

[2] = DPPH free radical scavenging activity; details: for IC50: DPPH antioxidant; for % inhibition: DPPH
Experimental: In the DPPH free radical scavenging activity, compounds (T1–T20) were evaluated for their free radical scavenging activity with ascorbic acid as standard compound. The scavenging effect increased with the increasing concentrations of sample compounds. DPPH is relatively stable nitrogen centered free radical that easily accepts an electron or hydrogen radical to become a stable diamagnetic molecule. DPPH radicals react with suitable reducing agents as a result of which the electrons become paired off forming the corresponding hydrazine. The solution therefore loses colour stoichometrically depending on the number of electrons taken up. […] The sample solutions were incubated for 30 min at room temperature in dark place and after then absorbance was recorded against the blank solution at 517 nm. The relative percent of DPPH scavenging activity was calculated according to the following equation: I%=Acontrol-Asample/Acontrol×100,
where Acontrol is the absorbance of the control, Asample is the absorbance of the test compound.

Jack Bean Urease = Jack Bean Urease (Canavalia ensiformis, UniProt P07374); experiment: biochemical
Experimental: Urease inhibitory potential for each synthesisized compound (T1–T20) was evaluated using Jack Bean Urease by Indophenol method (Table 5, Figs. 9, 10, 11). 250 µl of jack bean urease (4U) was mixed with 250 µl of different synthesized test compounds and standard of different concentrations [dissolved in DMSO/H2O mixture (1:1 v/v)]. The mixture was pre-incubated for 1 h at 37 °C in test tubes. 2 ml of 100 mM phosphate buffer (pH 6.8) containing 500 mM urea and 0.002% phenol red as an indicator were added in sample test tubes after pre incubation and again incubated at room temperature. Absorbance of reaction mixture was recorded by ELISA at 570 nm. Ammonium carbonate increased the pH of phosphate buffer from 6.8 to 7.7 which was produced from urea by urease enzyme and the end peak was measured by the colour of phenol red indicator [16].
The percentage inhibition of urease enzyme was calculated by using following formula: I%=Acontrol-Asample/Acontrol×100,
where Acontrol is the absorbance of the control; Asample is the absorbance of the test compound.

[3] = test system: HCT116 (human colon cancer cells); experiment: Anticancer evaluation, SRB assay; assay type: cell-based; details: Homo sapiens, HCT-116; HCT116, 72 h, SRB; mean of at least triplicates
Experimental: HCT116 (human colon cancer cells) were seeded at 2500 cells/well (96 well plate), allowed to attach overnight, exposed to the respective compounds for 72 h and subjected to SRB assay (570 nm). Data represent mean IC50 of at least triplicates. The compounds were all dissolved in DMSO as stock of 100 mg/ml. […] The highest concentration of each compound tested (100 μg/ml) contained only 0.1% DMSO.

Candida albicans = experiment: In vitro antifungal screening, tube dilution method; assay type: cell-based; details: Candida albicans; C. albican; Sabouraud dextrose broth, 37 ± 1 °C, 48 h; read-out: Minimum inhibitory concentration
Experimental: as §1

Aspergillus niger = experiment: as above; assay type: cell-based; details: A. niger, Sabouraud dextrose broth, 25 ± 1 °C, 7 days, read-out: Minimum inhibitory concentration
Experimental: as §1

Sequence of Jack Bean Urease (P07374 whole entry, looked up): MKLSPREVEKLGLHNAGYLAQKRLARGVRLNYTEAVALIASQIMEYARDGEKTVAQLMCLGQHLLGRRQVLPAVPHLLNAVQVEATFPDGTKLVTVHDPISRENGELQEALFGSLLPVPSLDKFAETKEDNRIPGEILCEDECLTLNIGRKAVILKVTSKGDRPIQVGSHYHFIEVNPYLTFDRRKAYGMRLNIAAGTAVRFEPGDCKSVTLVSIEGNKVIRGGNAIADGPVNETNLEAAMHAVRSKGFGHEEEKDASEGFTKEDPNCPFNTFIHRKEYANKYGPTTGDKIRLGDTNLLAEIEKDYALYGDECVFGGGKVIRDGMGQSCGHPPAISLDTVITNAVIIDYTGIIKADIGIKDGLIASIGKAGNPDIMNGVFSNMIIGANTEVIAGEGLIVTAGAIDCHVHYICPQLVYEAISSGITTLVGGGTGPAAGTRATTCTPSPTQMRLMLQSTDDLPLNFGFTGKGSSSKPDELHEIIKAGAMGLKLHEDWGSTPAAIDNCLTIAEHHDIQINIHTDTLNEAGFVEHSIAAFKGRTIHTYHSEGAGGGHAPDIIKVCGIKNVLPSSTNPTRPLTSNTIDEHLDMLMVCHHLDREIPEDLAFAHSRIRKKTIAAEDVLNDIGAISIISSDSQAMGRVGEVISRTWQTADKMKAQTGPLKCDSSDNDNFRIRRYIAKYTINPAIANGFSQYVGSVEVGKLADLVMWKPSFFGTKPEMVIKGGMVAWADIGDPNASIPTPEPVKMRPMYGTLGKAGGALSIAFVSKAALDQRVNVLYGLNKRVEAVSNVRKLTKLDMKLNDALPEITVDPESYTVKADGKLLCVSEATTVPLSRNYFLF

Compound | MIC [1] [µM] | MIC (Escherichia coli; Escherichia coli) [µM] | MIC (Bacillus subtilis; Bacillus subtilis) [µM] | MIC (Pseudomonas aeruginosa; Pseudomonas aeruginosa) [µM] | MIC (Pseudomonas aeruginosa) [µM] | IC50 [2] [mg/L] | % inhibition ([2]; 25 µg/ml) [%] | % inhibition ([2]; 50 µg/ml) [%] | % inhibition ([2]; 75 µg/ml) [%] | % inhibition ([2]; 100 µg/ml) [%] | IC50 (Jack Bean Urease) [µM] | inhibition at 25 µg/mL (Jack Bean Urease) [%] | inhibition at 50 µg/mL (Jack Bean Urease) [%] | inhibition at 75 µg/mL (Jack Bean Urease) [%] | inhibition at 100 µg/mL (Jack Bean Urease) [%] | IC50 [3] [µM] | MIC (Candida albicans) [µM] | MIC (Aspergillus niger; Aspergillus niger, 168 h) [µM] | melting point [°C] | also measured
CC1(C)S[C@@H]2[C@H](NC(=O)[C@H](N)c3ccc(O)cc3)C(=O)N2[C@H]1C(=O)O [Amoxicillin, reference compound] | 17.1 | 17.1 (≈ 6.25 µg/mL) | 17.1 (≈ 6.25 µg/mL) | 17.1 (≈ 6.25 µg/mL) | – | – | – | – | – | – | – | – | – | – | – | – | – | – | – | –
O=C(O)c1cn(C2CC2)c2cc(N3CCNCC3)c(F)cc2c1=O [Ciprofloxacin, reference compound] | 18.1 | 37.7 (≈ 12.5 µg/mL) | 18 (≈ 5.96 µg/mL) | 18 (≈ 5.96 µg/mL) | 18.0 (≈ 5.96 µg/mL) | – | – | – | – | – | – | – | – | – | – | – | – | – | – | MIC (Bacillus subtilis): 18.0 µM (≈ 5.96 µg/mL)
CCCCCCCCCCCCCCCc1nnc(S)n1N=Cc1ccc(O)cc1 [Compound T8] | – | 58 (≈ 25 µg/mL) | 116 (≈ 50 µg/mL) | 58 (≈ 25 µg/mL) | 58.0 (≈ 25 µg/mL) | 36.12 (≈ 83.9 µM) | 43.91 | 58.67 | 67.54 | 82.57 | 131 | 22.4 | 39.6 | 68.6 | 92.7 | > 232 | 116 (≈ 50 µg/mL) | 232 (≈ 100 µg/mL) | 192 to 195 | MIC (Escherichia coli): 58.0 µM (≈ 25 µg/mL)
CCCCCCCCCCCCCCCc1nnc(S)n1N=Cc1ccccc1 [Compound T1] | – | 241 (≈ 100 µg/mL) | 120 (≈ 50 µg/mL) | 241 (≈ 100 µg/mL) | – | 46.83 (≈ 113 µM) | 25.45 | 49.65 | 69.67 | 94.78 | 125 | 25.8 | 48 | 72.9 | 92 | > 241 | 241 (≈ 100 µg/mL) | 120 (≈ 50 µg/mL) | 184 to 187 | –
CCCCCCCCCCCCCCCc1nnc(S)n1N=Cc1ccc(OC)c(O)c1 [Compound T6] | – | 54.2 (≈ 25 µg/mL) | 108 (≈ 50 µg/mL) | 54.2 (≈ 25 µg/mL) | – | 45.66 (≈ 99.1 µM) | 31.67 | 53.67 | 77.78 | 92.67 | 102 | 38.5 | 50.3 | 65.6 | 80.9 | 112 | 108 (≈ 50 µg/mL) | 217 (≈ 100 µg/mL) | 189 to 192 | MIC (Aspergillus niger): 217.0 µM (≈ 100 µg/mL)
